Experiments:
[1] = biological target: Tyrosine-protein kinase Lck (Homo sapiens, UniProt P06239); experiment: DRUGMATRIX: Protein Tyrosine Kinase, LCK enzyme inhibition (substrate: Poly(Glu:Tyr)); type: cell-based, Insect cells; conditions: Not Active = under 50% inhibition at 10 µM
Adenosine receptor A3 = biological target: T1, Adenosine receptor A3 (Homo sapiens, UniProt P0DMS8); type: cell membranes, CHO-K1, Membrane; conditions: cho-k1;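 also: radioligand binding assay with AB-MECA serving as the labeled ligand; in other assays of this panel Not Active means under 50% inhibition at 10 µM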
T1 sequence (P0DMS8 whole entry): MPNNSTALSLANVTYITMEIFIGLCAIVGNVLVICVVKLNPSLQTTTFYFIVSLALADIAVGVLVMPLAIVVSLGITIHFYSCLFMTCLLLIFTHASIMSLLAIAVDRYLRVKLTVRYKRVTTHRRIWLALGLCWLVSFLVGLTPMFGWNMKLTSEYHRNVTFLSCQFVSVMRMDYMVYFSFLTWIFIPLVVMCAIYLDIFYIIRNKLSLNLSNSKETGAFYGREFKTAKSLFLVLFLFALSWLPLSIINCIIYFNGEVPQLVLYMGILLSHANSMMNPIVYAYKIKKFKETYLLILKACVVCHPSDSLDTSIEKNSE

Cytochrome P450 2A6 = biological target: T2, Cytochrome P450 2A6 (Homo sapiens, UniProt P11509); conditions: bti-tn-5b1-4; also: in other assays of this panel Not Active means under 50% inhibition at 10 µM
T2 sequence (P11509 whole entry): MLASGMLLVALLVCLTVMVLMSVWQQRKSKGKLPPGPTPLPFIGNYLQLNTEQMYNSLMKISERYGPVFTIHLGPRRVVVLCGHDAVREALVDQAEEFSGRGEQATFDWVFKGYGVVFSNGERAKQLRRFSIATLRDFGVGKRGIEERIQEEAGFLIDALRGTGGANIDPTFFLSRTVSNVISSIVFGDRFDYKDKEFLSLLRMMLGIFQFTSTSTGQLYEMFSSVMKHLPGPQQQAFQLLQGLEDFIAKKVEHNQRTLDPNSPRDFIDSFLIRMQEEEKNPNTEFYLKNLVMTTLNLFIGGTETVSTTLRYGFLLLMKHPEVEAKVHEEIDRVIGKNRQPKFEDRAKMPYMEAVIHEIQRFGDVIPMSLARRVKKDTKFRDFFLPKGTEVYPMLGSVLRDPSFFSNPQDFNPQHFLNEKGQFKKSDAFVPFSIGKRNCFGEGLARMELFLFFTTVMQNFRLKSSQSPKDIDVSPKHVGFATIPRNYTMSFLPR

Insulin receptor = Insulin receptor (Rattus norvegicus, UniProt P15127); type: cell membranes, Wistar, Liver, Membrane; also: in other assays of this panel Not Active means under 50% inhibition at 10 µM
[2] = biological target: Matrix metalloproteinase-9 (Homo sapiens, UniProt P14780); experiment: biochemical; type: cell-based;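 also: inhibition of isolated MMP-9 enzyme activity toward a synthetic peptide substrate, from the DrugMatrix protease screening panel; in other assays of this panel Not Active means under 50% inhibition at 10 µM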
[3] = biological target: Delta-type opioid receptor (Homo sapiens, UniProt P41143); type: cell membranes, HEK293, Membrane; conditions: hek293; also: in other assays of this panel Not Active means under 50% inhibition at 10 µM
Sequence of Delta-type opioid receptor (P41143 whole entry): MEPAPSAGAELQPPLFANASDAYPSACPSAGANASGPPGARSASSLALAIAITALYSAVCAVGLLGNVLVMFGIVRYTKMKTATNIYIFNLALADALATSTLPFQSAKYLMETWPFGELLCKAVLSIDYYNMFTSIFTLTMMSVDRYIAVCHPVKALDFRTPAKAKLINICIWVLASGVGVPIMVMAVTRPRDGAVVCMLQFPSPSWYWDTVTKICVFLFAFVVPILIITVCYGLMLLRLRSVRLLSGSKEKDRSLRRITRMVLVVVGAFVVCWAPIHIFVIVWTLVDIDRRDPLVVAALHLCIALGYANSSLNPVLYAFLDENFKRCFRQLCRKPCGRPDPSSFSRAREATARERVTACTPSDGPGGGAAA

Sequence of Tyrosine-protein kinase Lck (P06239 whole entry): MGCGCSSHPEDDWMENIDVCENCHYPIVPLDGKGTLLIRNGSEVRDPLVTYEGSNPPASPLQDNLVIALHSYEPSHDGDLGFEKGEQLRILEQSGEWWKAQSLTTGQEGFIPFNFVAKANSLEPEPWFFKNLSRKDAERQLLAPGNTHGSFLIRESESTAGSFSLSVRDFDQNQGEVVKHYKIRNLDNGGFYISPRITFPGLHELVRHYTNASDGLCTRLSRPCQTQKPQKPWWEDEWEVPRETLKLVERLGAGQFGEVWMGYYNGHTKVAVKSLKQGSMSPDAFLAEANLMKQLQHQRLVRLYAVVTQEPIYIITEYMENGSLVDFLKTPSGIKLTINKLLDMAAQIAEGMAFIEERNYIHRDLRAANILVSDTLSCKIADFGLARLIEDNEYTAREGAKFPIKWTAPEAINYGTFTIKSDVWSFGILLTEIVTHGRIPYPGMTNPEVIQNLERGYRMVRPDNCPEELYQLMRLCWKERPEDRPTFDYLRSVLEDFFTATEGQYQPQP
Sequence of Insulin receptor (P15127 27-759 limits assumed): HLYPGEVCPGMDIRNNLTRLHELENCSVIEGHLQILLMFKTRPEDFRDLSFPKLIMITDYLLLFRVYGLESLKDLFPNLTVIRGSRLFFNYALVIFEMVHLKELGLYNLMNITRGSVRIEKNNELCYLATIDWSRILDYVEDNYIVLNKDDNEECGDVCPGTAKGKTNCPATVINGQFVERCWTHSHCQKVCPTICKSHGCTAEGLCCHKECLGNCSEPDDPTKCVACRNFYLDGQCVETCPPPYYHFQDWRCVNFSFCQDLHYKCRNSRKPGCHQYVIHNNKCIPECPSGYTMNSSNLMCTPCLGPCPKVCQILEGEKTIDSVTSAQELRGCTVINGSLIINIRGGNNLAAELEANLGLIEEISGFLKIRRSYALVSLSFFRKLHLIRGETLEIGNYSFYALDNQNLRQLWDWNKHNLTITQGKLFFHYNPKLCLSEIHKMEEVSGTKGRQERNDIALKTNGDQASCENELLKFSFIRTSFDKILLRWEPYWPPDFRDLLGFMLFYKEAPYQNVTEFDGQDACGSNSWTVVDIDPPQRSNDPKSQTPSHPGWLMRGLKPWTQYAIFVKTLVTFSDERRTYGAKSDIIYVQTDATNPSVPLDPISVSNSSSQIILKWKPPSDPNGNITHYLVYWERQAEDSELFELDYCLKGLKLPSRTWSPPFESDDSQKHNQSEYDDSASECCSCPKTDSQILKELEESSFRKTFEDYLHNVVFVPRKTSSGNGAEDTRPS
Sequence of Insulin receptor (P15127 764-1383 limits assumed): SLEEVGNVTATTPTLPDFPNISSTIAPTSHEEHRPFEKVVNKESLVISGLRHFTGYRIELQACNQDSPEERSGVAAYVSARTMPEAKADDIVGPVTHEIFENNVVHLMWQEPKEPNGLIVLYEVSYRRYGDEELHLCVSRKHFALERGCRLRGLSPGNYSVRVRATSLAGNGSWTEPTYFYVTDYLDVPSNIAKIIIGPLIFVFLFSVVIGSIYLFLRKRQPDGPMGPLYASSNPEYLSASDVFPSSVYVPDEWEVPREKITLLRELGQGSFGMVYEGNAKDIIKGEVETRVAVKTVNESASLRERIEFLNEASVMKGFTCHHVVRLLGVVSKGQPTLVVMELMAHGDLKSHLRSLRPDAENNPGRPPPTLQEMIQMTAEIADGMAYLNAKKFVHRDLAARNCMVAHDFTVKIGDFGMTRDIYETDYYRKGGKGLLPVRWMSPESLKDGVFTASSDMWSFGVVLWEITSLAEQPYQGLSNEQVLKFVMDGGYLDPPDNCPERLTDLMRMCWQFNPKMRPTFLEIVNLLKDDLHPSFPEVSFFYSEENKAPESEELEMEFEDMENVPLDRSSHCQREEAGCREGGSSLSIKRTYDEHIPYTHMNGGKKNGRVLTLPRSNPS
Sequence of Matrix metalloproteinase-9 (P14780 whole entry): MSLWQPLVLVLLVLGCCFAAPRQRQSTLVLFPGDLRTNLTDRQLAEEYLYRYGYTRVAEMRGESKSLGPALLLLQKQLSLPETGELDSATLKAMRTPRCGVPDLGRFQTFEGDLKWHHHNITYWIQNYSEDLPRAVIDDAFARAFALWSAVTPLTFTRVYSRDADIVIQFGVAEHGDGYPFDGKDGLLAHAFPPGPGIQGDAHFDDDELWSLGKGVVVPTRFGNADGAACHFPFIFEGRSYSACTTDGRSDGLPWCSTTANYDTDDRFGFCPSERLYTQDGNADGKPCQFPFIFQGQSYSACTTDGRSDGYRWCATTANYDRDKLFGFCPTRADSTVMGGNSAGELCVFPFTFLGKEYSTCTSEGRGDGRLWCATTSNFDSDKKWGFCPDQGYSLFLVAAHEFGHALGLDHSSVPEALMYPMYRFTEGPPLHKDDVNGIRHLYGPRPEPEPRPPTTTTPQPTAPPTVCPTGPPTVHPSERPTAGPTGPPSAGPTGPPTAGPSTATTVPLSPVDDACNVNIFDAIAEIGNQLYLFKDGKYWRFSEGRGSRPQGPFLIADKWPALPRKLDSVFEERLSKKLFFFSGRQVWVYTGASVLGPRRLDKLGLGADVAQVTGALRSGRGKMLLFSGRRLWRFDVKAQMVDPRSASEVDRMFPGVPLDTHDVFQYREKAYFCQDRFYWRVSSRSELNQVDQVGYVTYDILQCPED

SMILES | IC50 ([1]; insect cells) | IC50 (Adenosine receptor A3) | IC50 (Cytochrome P450 2A6) | Ki (Cytochrome P450 2A6) | IC50 (Insulin receptor) | IC50 [2] | IC50 [3] | IC50 ([1]; read-out: IC50)
CC(C)(C)NC(=O)[C@@H]1C[C@@H]2CCCC[C@@H]2CN1C[C@@H](O)[C@H](Cc1ccccc1)NC(=O)[C@H](CC(N)=O)NC(=O)c1ccc2ccccc2n1 | Not Active | Not Active | Not Active | Not Active | Not Active | Not Active | – | –
CC(=O)[C@@]1(O)CC[C@H]2[C@@H]3C[C@H](C)C4=CC(=O)CC[C@]4(C)[C@H]3CC[C@@]21C | Not Active | Not Active | Not Active | Not Active | Not Active | Not Active | Not Active | –
N[C@@H](Cc1ccc(N(CCCl)CCCl)cc1)C(=O)O | Not Active | Not Active | Not Active | Not Active | Not Active | Not Active | Not Active | –
CCCCc1oc2ccccc2c1C(=O)c1cc(I)c(OCCN(CC)CC)c(I)c1 [AMIODARONE] | Not Active | – | Not Active | Not Active | Not Active | Not Active | – | –
OCCN(CCO)c1nc(N2CCCCC2)c2nc(N(CCO)CCO)nc(N3CCCCC3)c2n1 [DIPYRIDAMOLE] | Not Active | Not Active | Not Active | Not Active | Not Active | Not Active | Not Active | –
Cc1oncc1C(=O)Nc1ccc(C(F)(F)F)cc1 [LEFLUNOMIDE] | Not Active | Not Active | Not Active | Not Active | Not Active | Not Active | Not Active | –
c1ccc([C@H]2CN3CCSC3=N2)cc1 [LEVAMISOLE] | Not Active | Not Active | Not Active | Not Active | Not Active | Not Active | Not Active | –
N[C@@H](Cc1ccc(O)c(O)c1)C(=O)O [LEVODOPA] | – | Not Active | Not Active | Not Active | Not Active | Not Active | Not Active | 3.73 µM
N[C@@H](Cc1cc(I)c(Oc2ccc(O)c(I)c2)c(I)c1)C(=O)O [LIOTHYRONINE] | Not Active | Not Active | Not Active | Not Active | Not Active | Not Active | Not Active | –
O=NN(CCCl)C(=O)NC1CCCCC1 [LOMUSTINE] | Not Active | Not Active | Not Active | Not Active | Not Active | Not Active | Not Active | –
CCOC(=O)N1CCC(=C2c3ccc(Cl)cc3CCc3cccnc32)CC1 [LORATADINE] | Not Active | Not Active | Not Active | Not Active | Not Active | Not Active | Not Active | –
Cn1ccnc1S [METHIMAZOLE] | Not Active | Not Active | Not Active | Not Active | Not Active | Not Active | Not Active | –
CC[C@@H](CO)NC(=O)[C@@H]1C=C2c3cccc4[nH]cc(c34)C[C@H]2N(C)C1 [METHYLERGONOVINE] | Not Active | Not Active | Not Active | Not Active | Not Active | Not Active | Not Active | –
COc1nc(C)nc(Cl)c1NC1=NCCN1 [MOXONIDINE] | Not Active | Not Active | Not Active | Not Active | Not Active | Not Active | Not Active | –
Nc1nc2ccc(OC(F)(F)F)cc2s1 [RILUZOLE] | Not Active | Not Active | – | – | Not Active | Not Active | Not Active | –
N[C@@H]1[C@H]2CN(c3nc4c(cc3F)c(=O)c(C(=O)O)cn4-c3ccc(F)cc3F)C[C@@H]12 [TROVAFLOXACIN] | – | Not Active | Not Active | Not Active | Not Active | Not Active | Not Active | –

— ChEMBL document CHEMBL1909046, “DrugMatrix in vitro pharmacology data”
